Assay results: patent US20260242419A1, “A CYCLIC PEPTIDE FOR TRAPPING INTERLEUKIN-1 BETA” (Merck Sharp & Dohme LLC, priority 2023, published 2026)
Where two headings read alike, the source gives them in different places. Starred links: 1 amine or outer side, 2 acyl side, 3 side chain; linkers in the order of their positions; H or OH if unused. Non-standard residues stand in square brackets, D forms with d. Residues, ends and D or L forms follow the SMILES beside them. *: point of attachment. Trp(βS-Me,4-F) = C[C@@H](c1c[nH]c2cccc(F)c12)[C@H](N)C(=O)O; Bip(4'-COOH) = N[C@@H](Cc1ccc(-c2ccc(C(=O)O)cc2)cc1)C(=O)O; X4 = O=C([C@H]1[C@@H](Cc2ccncc2)CCN1[*:1])[*:2]; Ala(pyrimidin-5-yl) = N[C@@H](Cc1cncnc1)C(=O)O; Phe(4-COOH) = N[C@@H](Cc1ccc(C(=O)O)cc1)C(=O)O; Nva(5,5,5-F3) = N[C@@H](CCC(F)(F)F)C(=O)O; Pro(cis-4-F) = O=C(O)[C@@H]1C[C@H](F)CN1; Dap(CONH2) = NC(=O)NC[C@H](N)C(=O)O; d(αMeD) = C[C@@](N)(CC(=O)O)C(=O)O; 4Pal = N[C@@H](Cc1ccncc1)C(=O)O; Dab = NCC[C@H](N)C(=O)O; Nva = CCC[C@H](N)C(=O)O; Aib = CC(C)(N)C(=O)O; Bn = c1ccc(C*)cc1

Biological target: T1, IL-1β (Homo sapiens, UniProt P01584)
T1 construct: purchased BioLegend 579404
Experiment: IL-6 assay in MRC5 cells: inhibition of IL-1β induced IL-6 secretion (AlphaLISA)
Assay type: cell-based
Conditions: inhibition of IL-1β induced IL-6 secretion in MRC5 cells, read-out: MRC5 IC50
Summary of the method: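 Compound was pre-incubated 1 h at ambient temperature with recombinant human IL-1β at 2λ EC80 before adding human lung fibroblast MRC5 cells (3000/well) in EMEM with 0.025% BSA. After overnight culture at 37 °C, 5% CO2, secreted IL-6 in conditioned medium was measured by AlphaLISA; IC50 from 4-parameter logistic fits.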

[1] = compound pre-incubated 1 hour with recombinant human IL-1β

T1 sequence (P01584 117-269): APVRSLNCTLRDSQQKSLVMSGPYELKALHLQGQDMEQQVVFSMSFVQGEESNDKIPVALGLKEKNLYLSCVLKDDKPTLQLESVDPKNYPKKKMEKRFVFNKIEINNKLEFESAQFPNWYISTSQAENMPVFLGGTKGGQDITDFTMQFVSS

Row | IC50 [nM] | IC50 [1] [nM] | SMILES
1 | 0.021 | – | CO[C@H](C)[C@@H]1NC(=O)[C@@](C)(CC(=O)O)NC(=O)[C@H](Cc2c[nH]c3ccccc23)NC(=O)[C@H](CO)NC(=O)C(C)(C)NC(=O)[C@H]([C@@H](C)c2c[nH]c3cccc(F)c23)NC(=O)[C@@H]2C[C@H](F)CN2C(=O)CNC(=O)[C@H](Cc2ccc(C(=O)O)cc2)NC(=O)[C@H](Cc2ccncc2)NC(=O)[C@H](Cc2ccc(-c3ccc(C(=O)O)cc3)cc2)NC(=O)[C@H]2[C@@H](Cc3ccncc3)CCN2C(=O)CNC(=O)[C@H](CNC(N)=O)NC(=O)[C@H](CCC(N)=O)NC1=O [Example 228] (cyclo([Bip(4'-COOH)][4Pal][Phe(4-COOH)]G[Pro(cis-4-F)][Trp(βS-Me,4-F)][Aib]SW[d(αMeD)]T(Me)Q[Dap(CONH2)]G[X4]))
2 | – | 0.023 | C[C@@H](OCc1ccccc1)[C@@H]1NC(=O)[C@@](C)(CC(=O)O)NC(=O)[C@H](Cc2c[nH]c3ccccc23)NC(=O)[C@H](CO)NC(=O)C(C)(C)NC(=O)[C@H]([C@@H](C)c2c[nH]c3cccc(F)c23)NC(=O)[C@@H]2C[C@H](F)CN2C(=O)CNC(=O)[C@H](Cc2ccc(C(=O)O)cc2)NC(=O)[C@H](Cc2ccncc2)NC(=O)[C@H](Cc2ccc(-c3ccc(C(=O)O)cc3)cc2)NC(=O)[C@H]2[C@@H](Cc3ccncc3)CCN2C(=O)CNC(=O)[C@H](CCN)NC(=O)[C@H](CCC(N)=O)NC1=O [Example 229] (cyclo([Bip(4'-COOH)][4Pal][Phe(4-COOH)]G[Pro(cis-4-F)][Trp(βS-Me,4-F)][Aib]SW[d(αMeD)]T(Bn)Q[Dab]G[X4]))
3 | – | 0.022 | C[C@@H](c1c[nH]c2cccc(F)c12)[C@@H]1NC(=O)[C@@H]2C[C@H](F)CN2C(=O)CNC(=O)[C@H](Cc2ccc(C(=O)O)cc2)NC(=O)[C@H](Cc2ccncc2)NC(=O)[C@H](Cc2ccc(-c3ccc(C(=O)O)cc3)cc2)NC(=O)[C@H]2[C@@H](Cc3ccncc3)CCN2C(=O)CNC(=O)[C@H](CNC(N)=O)NC(=O)[C@H](CCC(N)=O)NC(=O)[C@H](Cc2cncnc2)NC(=O)[C@@](C)(CC(=O)O)NC(=O)[C@H](Cc2c[nH]c3ccccc23)NC(=O)[C@H](CO)NC(=O)C(C)(C)NC1=O [Example 230] (cyclo([Bip(4'-COOH)][4Pal][Phe(4-COOH)]G[Pro(cis-4-F)][Trp(βS-Me,4-F)][Aib]SW[d(αMeD)][Ala(pyrimidin-5-yl)]Q[Dap(CONH2)]G[X4]))
4 | – | 0.027 | CCC[C@@H]1NC(=O)[C@@](C)(CC(=O)O)NC(=O)[C@H](Cc2c[nH]c3ccccc23)NC(=O)[C@H](CO)NC(=O)C(C)(C)NC(=O)[C@H]([C@@H](C)c2c[nH]c3cccc(F)c23)NC(=O)[C@@H]2C[C@H](F)CN2C(=O)CNC(=O)[C@H](Cc2ccc(C(=O)O)cc2)NC(=O)[C@H](Cc2ccncc2)NC(=O)[C@H](Cc2ccc(-c3ccc(C(=O)O)cc3)cc2)NC(=O)[C@H]2[C@@H](Cc3ccncc3)CCN2C(=O)CNC(=O)[C@H](CCN)NC(=O)[C@H](CCC(N)=O)NC1=O [Example 231] (cyclo([Bip(4'-COOH)][4Pal][Phe(4-COOH)]G[Pro(cis-4-F)][Trp(βS-Me,4-F)][Aib]SW[d(αMeD)][Nva]Q[Dab]G[X4]))
5 | – | 0.022 | C[C@@H](c1c[nH]c2cccc(F)c12)[C@@H]1NC(=O)[C@@H]2C[C@H](F)CN2C(=O)CNC(=O)[C@H](Cc2ccc(C(=O)O)cc2)NC(=O)[C@H](Cc2ccncc2)NC(=O)[C@H](Cc2ccc(-c3ccc(C(=O)O)cc3)cc2)NC(=O)[C@H]2[C@@H](Cc3ccncc3)CCN2C(=O)CNC(=O)[C@H](CCN)NC(=O)[C@H](CCC(N)=O)NC(=O)[C@H](CCC(F)(F)F)NC(=O)[C@@](C)(CC(=O)O)NC(=O)[C@H](Cc2c[nH]c3ccccc23)NC(=O)[C@H](CO)NC(=O)C(C)(C)NC1=O [Example 232] (cyclo([Bip(4'-COOH)][4Pal][Phe(4-COOH)]G[Pro(cis-4-F)][Trp(βS-Me,4-F)][Aib]SW[d(αMeD)][Nva(5,5,5-F3)]Q[Dab]G[X4]))
